According to PubChem BioAssay AID1259411 (Chemical Carcinogenesis Research Information System (CCRIS), 2018):
Calls of active or inactive are those of the source. No rule for the calls is given here.

Test system: rodent carcinogenicity bioassays, tumor incidence
Experiment: CCRIS carcinogenicity studies
Conditions: Dose: 0, Dose: 0
Method in brief: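 Archive of carcinogenicity, mutagenicity, tumor promotion and tumor inhibition results drawn from journals, NCI reports and other sources, expert-reviewed; covers 1985-2011 and is no longer updated.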

Compound: O=C1OC(O)C(C(Cl)Cl)=C1Cl (configuration not stated)
- carcinogen call (Species: RAT, Strain/Sex: WISTAR/FEMALE, Route: ORAL, 0.6, 1.9, 6.6 MG/KG BW IN DRINKING WATER FOR 104 WK (STUDY DURATION: 104 WK), 0.6, 1.9, 6.6 MG/KG BW IN DRINKING WATER FOR 104 WK (STUDY DURATION: 104 WK), Tumor Site: Type of Lesion: MAMMARY GLAND: ADENOCARCINOMA, FIBROADENOMA, HEMATOPOIETIC SYSTEM: LYMPHOMA OR LEUKEMIA, LIVER: CHOLANGIOMA, ADENOMA, AD, Tumor Site: Type of Lesion: MAMMARY GLAND: ADENOCARCINOMA, FIBROADENOMA, HEMATOPOIETIC SYSTEM: LYMPHOMA OR LEUKEMIA, LIVER: CHOLANGIOMA, ADENOMA, AD): active; positive
- carcinogen call (Species: RAT, Strain/Sex: WISTAR/MALE, Route: ORAL, 0.4, 1.3, 5 MG/KG BW IN DRINKING WATER FOR 104 WK (STUDY DURATION: 104 WK), 0.4, 1.3, 5 MG/KG BW IN DRINKING WATER FOR 104 WK (STUDY DURATION: 104 WK), Tumor Site: Type of Lesion: SKIN (SUBCUTANEOUS TISSUE): BASAL CELL TUMOR, LUNG: ALVEOLAR/BRONCHIOLAR ADENOMA, LIVER: CHOLANGIOMA,ADENOMA, PANCREAS (, Tumor Site: Type of Lesion: SKIN (SUBCUTANEOUS TISSUE): BASAL CELL TUMOR, LUNG: ALVEOLAR/BRONCHIOLAR ADENOMA, LIVER: CHOLANGIOMA,ADENOMA, PANCREAS (): active; positive

Compound: ClCC(Cl)CCl
- carcinogen call (Species: GUPPIE, Strain/Sex: FEMALE, Route: AQUARIUM WATER, 4.5, 9, 18 MG/L FOR 9 MO THEN IN CLEAN WATER FOR 7 MO (STUDY DURATION: 16 MO), 4.5, 9, 18 MG/L FOR 9 MO THEN IN CLEAN WATER FOR 7 MO (STUDY DURATION: 16 MO), Tumor Site: Type of Lesion: LIVER: CHOLANGIOCARCINOMA, HEPATOCELLULAR ADENOMA OR CARCINOMA): active; positive
- carcinogen call (Species: GUPPIE, Strain/Sex: FEMALE, Route: AQUARIUM WATER, 4.5, 9, 18 MG/L FOR 16 MO (STUDY DURATION: 16 MO), 4.5, 9, 18 MG/L FOR 16 MO (STUDY DURATION: 16 MO), Tumor Site: Type of Lesion: LIVER: HEPATOCELLULAR ADENOMA OR CARCINOMA, CHOLANGIOCARCINOMA): active; positive
- carcinogen call (Species: GUPPIE, Strain/Sex: MALE, Route: AQUARIUM WATER, 4.5, 9, 18 MG/L FOR 9 MO THEN IN CLEAN WATER FOR 7 MO (STUDY DURATION: 16 MO), 4.5, 9, 18 MG/L FOR 9 MO THEN IN CLEAN WATER FOR 7 MO (STUDY DURATION: 16 MO), Tumor Site: Type of Lesion: LIVER: HEPATOCELLULAR ADENOMA OR CARCINOMA): active; positive
- carcinogen call (Species: GUPPIE, Strain/Sex: MALE, Route: AQUARIUM WATER, 4.5, 9, 18 MG/L FOR 16 MO (STUDY DURATION: 16 MO), 4.5, 9, 18 MG/L FOR 16 MO (STUDY DURATION: 16 MO), Tumor Site: Type of Lesion: LIVER: HEPATOCELLULAR ADENOMA OR CARCINOMA): active; positive
- carcinogen call (Species: MEDAKA, Strain/Sex: FEMALE, Route: AQUARIUM WATER, 4.5, 9, 18 MG/L FOR 9 MO THEN IN CLEAN WATER FOR 4 MO (STUDY DURATION: 13 MO), 4.5, 9, 18 MG/L FOR 9 MO THEN IN CLEAN WATER FOR 4 MO (STUDY DURATION: 13 MO), Tumor Site: Type of Lesion: LIVER: CHOLANGIOCARCINOMA, HEPATOCELLULAR ADENOMA OR CARCINOMA, GALL BLADDER: ADENOMA): active; positive
- carcinogen call (Species: MEDAKA, Strain/Sex: FEMALE, Route: AQUARIUM WATER, 4.5, 9, 18 MG/L FOR 13 MO (STUDY DURATION: 13 MO), 4.5, 9, 18 MG/L FOR 13 MO (STUDY DURATION: 13 MO), Tumor Site: Type of Lesion: LIVER: CHOLANGIOCARCINOMA, HEPATOCELLULAR ADENOMA OR CARCINOMA, HEPATOCHOLANGIOCARCINOMA, GALL BLADDER: ADENOMA): active; positive
- carcinogen call (Species: MEDAKA, Strain/Sex: MALE, Route: AQUARIUM WATER, 4.5, 9, 18 MG/L FOR 9 MO THEN IN CLEAN WATER FOR 4 MO (STUDY DURATION: 13 MO), 4.5, 9, 18 MG/L FOR 9 MO THEN IN CLEAN WATER FOR 4 MO (STUDY DURATION: 13 MO), Tumor Site: Type of Lesion: LIVER: CHOLANGIOCARCINOMA, HEPATOCELLULAR ADENOMA OR CARCINOMA, GALL BLADDER: ADENOMA): active; positive
- carcinogen call (Species: MEDAKA, Strain/Sex: MALE, Route: AQUARIUM WATER, 4.5, 9, 18 MG/L FOR 13 MO (STUDY DURATION: 13 MO), 4.5, 9, 18 MG/L FOR 13 MO (STUDY DURATION: 13 MO), Tumor Site: Type of Lesion: LIVER: CHOLANGIOCARCINOMA, HEPATOCELLULAR ADENOMA OR CARCINOMA, GALL BLADDER: ADENOMA, HEPATOCHOLANGIOCARCINOMA): active; positive
- carcinogen call (Species: MOUSE, Strain/Sex: B6C3F1/FEMALE, Route: GAVAGE, 6, 20, 60 MG/KG BW IN CORN OIL 5 D/WK FOR 104 WK (STUDY DURATION: 2 YR), 6, 20, 60 MG/KG BW IN CORN OIL 5 D/WK FOR 104 WK (STUDY DURATION: 2 YR), Tumor Site: Type of Lesion: HARDERIAN GLAND: ADENOMA, LIVER: HEPATOCELLULAR ADENOMA, PHARYNX: SQUAMOUS CELL CARCINOMA, FORESTOMACH: SQUAMOUS CELL PA, Tumor Site: Type of Lesion: HARDERIAN GLAND: ADENOMA, LIVER: HEPATOCELLULAR ADENOMA, PHARYNX: SQUAMOUS CELL CARCINOMA, FORESTOMACH: SQUAMOUS CELL PA): active; positive
- carcinogen call (Species: MOUSE, Strain/Sex: B6C3F1/MALE, Route: GAVAGE, 6, 20, 60 MG/KG BW IN CORN OIL 5 D/WK FOR 104 WK (STUDY DURATION: 2 YR), 6, 20, 60 MG/KG BW IN CORN OIL 5 D/WK FOR 104 WK (STUDY DURATION: 2 YR), Tumor Site: Type of Lesion: HARDERIAN GLAND: ADENOMA, LIVER: HEPATOCELLULAR ADENOMA, FORESTOMACH: SQUAMOUS CELL PAPILLOMA, SQUAMOUS CELL CARCINOMA, Tumor Site: Type of Lesion: HARDERIAN GLAND: ADENOMA, LIVER: HEPATOCELLULAR ADENOMA, FORESTOMACH: SQUAMOUS CELL PAPILLOMA, SQUAMOUS CELL CARCINOMA): active; positive
- carcinogen call (Species: RAT, Strain/Sex: F344/FEMALE, Route: GAVAGE, 3, 10, 30 MG/KG BW IN CORN OIL 5 D/WK FOR 104 WK (STUDY DURATION: 2 YR), 3, 10, 30 MG/KG BW IN CORN OIL 5 D/WK FOR 104 WK (STUDY DURATION: 2 YR), Tumor Site: Type of Lesion: CLITORAL GLAND: ADENOMA, CARCINOMA, MAMMARY GLAND: CARCINOMA, PHARYNX: SQUAMOUS CELL CARCINOMA, FORESTOMACH: SQUAMOUS CE, Tumor Site: Type of Lesion: CLITORAL GLAND: ADENOMA, CARCINOMA, MAMMARY GLAND: CARCINOMA, PHARYNX: SQUAMOUS CELL CARCINOMA, FORESTOMACH: SQUAMOUS CE): active; positive
- carcinogen call (Species: RAT, Strain/Sex: F344/MALE, Route: GAVAGE, 3, 10, 30 MG/KG BW IN CORN OIL 5 D/WK FOR 104 WK (STUDY DURATION: 2 YR), 3, 10, 30 MG/KG BW IN CORN OIL 5 D/WK FOR 104 WK (STUDY DURATION: 2 YR), Tumor Site: Type of Lesion: KIDNEY (RENAL TUBULE): ADENOMA, PANCREAS: ADENOMA, PHARYNX: SQUAMOUS CELL CARCINOMA, PREPUTIAL GLAND: ADENOMA, CARCINOMA, Tumor Site: Type of Lesion: KIDNEY (RENAL TUBULE): ADENOMA, PANCREAS: ADENOMA, PHARYNX: SQUAMOUS CELL CARCINOMA, PREPUTIAL GLAND: ADENOMA, CARCINOMA): active; positive

Compound: Clc1c2ccccc2cc2c1ccc1ccccc12
- carcinogen call (Species: MOUSE, Strain/Sex: B6C3F1/MALE, Route: INTRAPERITONEAL, 1600 NMOL (TOTAL DOSE) ADMINISTERED IN DOSES OF 1/7 WITHIN 24 HR OF BIRTH, 2/7 AT 8 DAYS OF AGE AND 4/7 AT 15 DAYS OF, Tumor Site: Type of Lesion: LIVER: ADENOMA, CARCINOMA): active; positive

Compound: CNC(=O)Oc1cccc2c1OC(C)(C)O2
- carcinogen call (Species: Mouse, Strain/Sex: CD-1/Female, Route: Oral, 50, 250, 1250 ppm in diet for 94 wks, 50, 250, 1250 ppm in diet for 94 wks): inactive; negative; purity 92.7%
- carcinogen call (Species: Mouse, Strain/Sex: CD-1/Male, Route: Oral, 50, 250, 1250 ppm in diet for 89 wks, 50, 250, 1250 ppm in diet for 89 wks): inactive; negative; purity 92.7%
